Data from the NIST ThermoML archive (doi:10.1021/je201297j).
± gives the expanded uncertainty stated by the source.

Conditions: Liquid, Vibrating wire viscometry

SMILES: COC [dimethyl ether]
- viscosity (243.15 K): 0.2217 ± 0.0062 mPa·s
- viscosity (248.16 K): 0.2097 ± 0.006 mPa·s
- viscosity (253.15 K, 5000 kPa): 0.2044 ± 0.0059 mPa·s
- viscosity (253.15 K, 10000 kPa): 0.2125 ± 0.006 mPa·s
- viscosity (253.15 K, 15000 kPa): 0.2199 ± 0.0062 mPa·s
- viscosity (253.15 K, 20000 kPa): 0.2314 ± 0.0064 mPa·s
- viscosity (253.15 K, 25000 kPa): 0.2421 ± 0.0066 mPa·s
- viscosity (253.15 K, 30000 kPa): 0.2541 ± 0.0068 mPa·s
- viscosity (253.15 K): 0.1988 ± 0.0058 mPa·s
- viscosity (258.14 K): 0.1889 ± 0.0057 mPa·s
- viscosity (263.15 K, 5000 kPa): 0.1836 ± 0.0056 mPa·s
- viscosity (263.15 K, 10000 kPa): 0.1911 ± 0.0057 mPa·s
- viscosity (263.15 K, 15000 kPa): 0.1989 ± 0.0058 mPa·s
- viscosity (263.15 K, 20000 kPa): 0.2068 ± 0.006 mPa·s
- viscosity (263.15 K, 25000 kPa): 0.2156 ± 0.0061 mPa·s
- viscosity (263.15 K, 30000 kPa): 0.2252 ± 0.0063 mPa·s
- viscosity (263.15 K): 0.1796 ± 0.0055 mPa·s
- viscosity (268.14 K): 0.1709 ± 0.0054 mPa·s
- viscosity (273.14 K, 5000 kPa): 0.1669 ± 0.0053 mPa·s
- viscosity (273.14 K, 10000 kPa): 0.1742 ± 0.0054 mPa·s
- viscosity (273.14 K, 15000 kPa): 0.1816 ± 0.0056 mPa·s
- viscosity (273.14 K, 20000 kPa): 0.189 ± 0.0057 mPa·s
- viscosity (273.14 K, 25000 kPa): 0.196 ± 0.0058 mPa·s
- viscosity (273.14 K, 30000 kPa): 0.2035 ± 0.0059 mPa·s
- viscosity (273.14 K): 0.1628 ± 0.0052 mPa·s
- viscosity (278.13 K): 0.1552 ± 0.0051 mPa·s
- viscosity (283.14 K, 5000 kPa): 0.1521 ± 0.0051 mPa·s
- viscosity (283.14 K, 10000 kPa): 0.159 ± 0.0052 mPa·s
- viscosity (283.14 K, 15000 kPa): 0.1657 ± 0.0053 mPa·s
- viscosity (283.14 K, 20000 kPa): 0.1724 ± 0.0054 mPa·s
- viscosity (283.14 K, 25000 kPa): 0.1791 ± 0.0055 mPa·s
- viscosity (283.14 K, 30000 kPa): 0.1857 ± 0.0056 mPa·s
- viscosity (283.14 K): 0.1479 ± 0.005 mPa·s
- viscosity (288.14 K): 0.1414 ± 0.0049 mPa·s
- viscosity (293.14 K, 5000 kPa): 0.1395 ± 0.0049 mPa·s
- viscosity (293.14 K, 10000 kPa): 0.1455 ± 0.005 mPa·s
- viscosity (293.14 K, 15000 kPa): 0.1527 ± 0.0051 mPa·s
- viscosity (293.14 K, 20000 kPa): 0.1586 ± 0.0052 mPa·s
- viscosity (293.14 K, 25000 kPa): 0.1652 ± 0.0053 mPa·s
- viscosity (293.14 K, 30000 kPa): 0.1709 ± 0.0054 mPa·s
- viscosity (293.14 K): 0.1351 ± 0.0048 mPa·s
- viscosity (298.14 K): 0.129 ± 0.0047 mPa·s
- viscosity (303.14 K, 5000 kPa): 0.1276 ± 0.0047 mPa·s
- viscosity (303.14 K, 10000 kPa): 0.134 ± 0.0048 mPa·s
- viscosity (303.14 K, 15000 kPa): 0.1401 ± 0.0049 mPa·s
- viscosity (303.14 K, 20000 kPa): 0.1464 ± 0.005 mPa·s
- viscosity (303.14 K, 25000 kPa): 0.1521 ± 0.0051 mPa·s
- viscosity (303.14 K, 30000 kPa): 0.1584 ± 0.0052 mPa·s
- viscosity (303.14 K): 0.124 ± 0.0047 mPa·s
- viscosity (308.14 K): 0.1181 ± 0.0046 mPa·s
- viscosity (313.14 K, 5000 kPa): 0.1165 ± 0.0046 mPa·s
- viscosity (313.14 K, 10000 kPa): 0.1235 ± 0.0047 mPa·s
- viscosity (313.14 K, 15000 kPa): 0.1294 ± 0.0048 mPa·s
- viscosity (313.14 K, 20000 kPa): 0.1355 ± 0.0049 mPa·s
- viscosity (313.14 K, 25000 kPa): 0.1415 ± 0.0049 mPa·s
- viscosity (313.14 K, 30000 kPa): 0.1473 ± 0.005 mPa·s
- viscosity (313.14 K): 0.1129 ± 0.0045 mPa·s
- viscosity (318.12 K): 0.108 ± 0.0045 mPa·s
- viscosity (323.12 K, 5000 kPa): 0.107 ± 0.0045 mPa·s
- viscosity (323.12 K, 10000 kPa): 0.1139 ± 0.0046 mPa·s
- viscosity (323.12 K, 15000 kPa): 0.1199 ± 0.0046 mPa·s
- viscosity (323.12 K, 20000 kPa): 0.1262 ± 0.0047 mPa·s
- viscosity (323.12 K, 25000 kPa): 0.1316 ± 0.0048 mPa·s
- viscosity (323.12 K, 30000 kPa): 0.137 ± 0.0049 mPa·s
- viscosity (323.12 K): 0.1031 ± 0.0044 mPa·s
- viscosity (328.12 K): 0.09861 ± 0.0044 mPa·s
- viscosity (333.12 K, 5000 kPa): 0.09797 ± 0.0044 mPa·s
- viscosity (333.12 K, 10000 kPa): 0.1049 ± 0.0044 mPa·s
- viscosity (333.12 K, 15000 kPa): 0.1111 ± 0.0045 mPa·s
- viscosity (333.12 K, 20000 kPa): 0.117 ± 0.0046 mPa·s
- viscosity (333.12 K, 25000 kPa): 0.1231 ± 0.0047 mPa·s
- viscosity (333.12 K, 30000 kPa): 0.1284 ± 0.0047 mPa·s
- viscosity (333.13 K): 0.09419 ± 0.0043 mPa·s
- viscosity (338.13 K): 0.08983 ± 0.0043 mPa·s
- viscosity (343.13 K, 5000 kPa): 0.08951 ± 0.0043 mPa·s
- viscosity (343.13 K, 10000 kPa): 0.09664 ± 0.0043 mPa·s
- viscosity (343.13 K, 15000 kPa): 0.1036 ± 0.0044 mPa·s
- viscosity (343.13 K, 20000 kPa): 0.1096 ± 0.0045 mPa·s
- viscosity (343.13 K, 25000 kPa): 0.1151 ± 0.0046 mPa·s
- viscosity (343.13 K, 30000 kPa): 0.1204 ± 0.0046 mPa·s
- viscosity (343.13 K): 0.08575 ± 0.0042 mPa·s
- viscosity (348.13 K): 0.08166 ± 0.0042 mPa·s
- viscosity (353.12 K, 5000 kPa): 0.08119 ± 0.0042 mPa·s
- viscosity (353.12 K, 10000 kPa): 0.08899 ± 0.0043 mPa·s
- viscosity (353.12 K, 15000 kPa): 0.0959 ± 0.0043 mPa·s
- viscosity (353.12 K, 20000 kPa): 0.1017 ± 0.0044 mPa·s
- viscosity (353.12 K, 25000 kPa): 0.1075 ± 0.0045 mPa·s
- viscosity (353.12 K, 30000 kPa): 0.1127 ± 0.0045 mPa·s
- viscosity (353.12 K): 0.07777 ± 0.0042 mPa·s
- viscosity (358.13 K): 0.07388 ± 0.0042 mPa·s
- viscosity (363.13 K, 10000 kPa): 0.08181 ± 0.0042 mPa·s
- viscosity (363.13 K, 15000 kPa): 0.08877 ± 0.0043 mPa·s
- viscosity (363.13 K, 20000 kPa): 0.09499 ± 0.0043 mPa·s
- viscosity (363.13 K, 25000 kPa): 0.101 ± 0.0044 mPa·s
- viscosity (363.13 K, 30000 kPa): 0.1066 ± 0.0045 mPa·s
- viscosity (363.13 K): 0.07014 ± 0.0041 mPa·s
- viscosity (368.13 K): 0.06636 ± 0.0041 mPa·s
- viscosity (373.13 K, 5000 kPa): 0.06522 ± 0.0042 mPa·s
- viscosity (373.13 K, 10000 kPa): 0.07506 ± 0.0042 mPa·s
- viscosity (373.13 K, 15000 kPa): 0.08237 ± 0.0042 mPa·s
- viscosity (373.13 K, 20000 kPa): 0.08883 ± 0.0043 mPa·s
- viscosity (373.13 K, 25000 kPa): 0.09475 ± 0.0043 mPa·s
- viscosity (373.13 K, 30000 kPa): 0.09991 ± 0.0044 mPa·s
- viscosity (373.13 K): 0.06256 ± 0.0041 mPa·s
